Experimental data as given in PubChem BioAssay AID330 (DTP/NCI, 2004).
“And” between values parts separate entries of the source, which are not always exact repeats. Equal entries are not always repeated. Inconclusive results and toxic doses are left out. The calls were made as follows: active = survival T/C of 150% or more; inactive = T/C below 125% in these data.

Tested on: P388 leukemia ip, CD2F1 mice, survival T/C
Assay: NCI In Vivo Anticancer Drug Screen. Data for tumor model P388 Leukemia (intraperitoneal) in CD2F1 (CDF1) mice
Conditions: endpoint: median survival time, higher = longer survival
Outline: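 Mice carrying the transplanted tumor received test compound or vehicle. Survival was recorded in each group, and the value is the treated-group measurement divided by that of the vehicle-treated control group.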

[1] = dose: 50.0 mg/kg/injection, schedule: Q01DX005 (ip), vehicle: Klucel (hydroxypropylcellulose) (HPC)
[2] = dose: 100.0 mg/kg/injection, schedule: Q01DX005 (ip), vehicle: Klucel (hydroxypropylcellulose) (HPC)
[3] = dose: 200.0 mg/kg/injection, schedule: Q01DX005 (ip), vehicle: Klucel (hydroxypropylcellulose) (HPC)
[4] = dose: 25.0 mg/kg/injection, schedule: Q01DX009 (ip), vehicle: Klucel (hydroxypropylcellulose) (HPC)
[5] = dose: 50.0 mg/kg/injection, schedule: Q01DX009 (ip), vehicle: Klucel (hydroxypropylcellulose) (HPC)
[6] = dose: 60.0 mg/kg/injection, schedule: Q01DX005 (ip), vehicle: saline with Tween-80
[7] = dose: 120.0 mg/kg/injection, schedule: Q01DX005 (ip), vehicle: saline with Tween-80
[8] = dose: 100.0 mg/kg/injection, schedule: Q01DX001 (ip), vehicle: saline with Tween-80
[9] = dose: 200.0 mg/kg/injection, schedule: Q01DX001 (ip), vehicle: saline with Tween-80
[10] = dose: 400.0 mg/kg/injection, schedule: Q01DX001 (ip), vehicle: saline with Tween-80

Measured: T/C

[Cl][Hg][CH]1CCCC2OC(C(Cl)(Cl)Cl)OC21 (stereo not given)
inactive: dose: 3.13 mg/kg/injection, schedule: Q01DX001 (ip), vehicle: saline with Tween-80 113 % of control | dose: 6.25 mg/kg/injection, schedule: Q01DX001 (ip), vehicle: saline with Tween-80 97 % of control | dose: 12.5 mg/kg/injection, schedule: Q01DX001 (ip), vehicle: saline with Tween-80 94 % of control

CC1=CCC(=O)C=[N+]1Cc1ccccc1
inactive: dose: 6.25 mg/kg/injection, schedule: Q01DX005 (ip), vehicle: saline 114 % of control | dose: 12.5 mg/kg/injection, schedule: Q01DX005 (ip), vehicle: saline 100 % of control

CCOC(=O)/C(=C/C(C#N)=C/N(C)C)CC
inactive: dose: 50.0 mg/kg/injection, schedule: Q04DX003 (ip), vehicle: saline with Tween-80 104 % of control | dose: 100.0 mg/kg/injection, schedule: Q04DX003 (ip), vehicle: saline with Tween-80 95 % of control | dose: 200.0 mg/kg/injection, schedule: Q04DX003 (ip), vehicle: saline with Tween-80 109 % of control

CCCCCCCCCCCCCCCCCCOC(=O)C1CCCN1 (stereo not given)
inactive: dose: 100.0 mg/kg/injection, schedule: Q04DX002 (ip), vehicle: Klucel (hydroxypropylcellulose) (HPC) 101 % of control | dose: 200.0 mg/kg/injection, schedule: Q04DX002 (ip), vehicle: Klucel (hydroxypropylcellulose) (HPC) 99 % of control | dose: 400.0 mg/kg/injection, schedule: Q04DX002 (ip), vehicle: Klucel (hydroxypropylcellulose) (HPC) 94 % of control

O=NNc1ccc(Sc2ccc(NN=O)nc2)cc1
inactive: dose: 3.12 mg/kg/injection, schedule: Q01DX009 (ip), vehicle: water 124 % of control | dose: 6.25 mg/kg/injection, schedule: Q01DX009 (ip), vehicle: water 123 % of control | dose: 12.5 mg/kg/injection, schedule: Q01DX009 (ip), vehicle: water 100 % of control

C=C1C(=O)OC2C(O)CCCC12 (stereo not given)
inactive: dose: 50.0 mg/kg/injection, schedule: Q04DX003 (ip), vehicle: Klucel (hydroxypropylcellulose) (HPC) 105 % of control and 110 % of control | dose: 100.0 mg/kg/injection, schedule: Q04DX003 (ip), vehicle: Klucel (hydroxypropylcellulose) (HPC) 98 % of control and 103 % of control | dose: 200.0 mg/kg/injection, schedule: Q04DX003 (ip), vehicle: Klucel (hydroxypropylcellulose) (HPC) 110 % of control

CCN(CC)CCOC(=O)C(C)c1cccc2c(=O)cc(-c3ccccc3)oc12 (stereo not given)
inactive: [1] 90 % of control | [2] 101 % of control | [3] 101 % of control

Clc1cc(Cl)c(Cl)nn1
inactive: [4] 98 % of control | [5] 94 % of control | dose: 100.0 mg/kg/injection, schedule: Q01DX009 (ip), vehicle: Klucel (hydroxypropylcellulose) (HPC) 92 % of control

Clc1ccc2c(c1)nc(-c1ccccn1)n2CCc1ccncc1
inactive: dose: 25.0 mg/kg/injection, schedule: Q01DX005 (ip), vehicle: Klucel (hydroxypropylcellulose) (HPC) 100 % of control | [1] 95 % of control | [2] 99 % of control | [3] 99 % of control

N#CC(Nc1ncccn1)c1ccccc1 (stereo not given)
inactive: [6] 97 % of control | [7] 94 % of control | dose: 240.0 mg/kg/injection, schedule: Q01DX005 (ip), vehicle: saline with Tween-80 91 % of control

O=C(O)/C=C/C(=O)NNc1nc2ccccc2s1
inactive: dose: 60.0 mg/kg/injection, schedule: Q01DX005 (ip), vehicle: Klucel (hydroxypropylcellulose) (HPC) 97 % of control | dose: 120.0 mg/kg/injection, schedule: Q01DX005 (ip), vehicle: Klucel (hydroxypropylcellulose) (HPC) 96 % of control | dose: 240.0 mg/kg/injection, schedule: Q01DX005 (ip), vehicle: Klucel (hydroxypropylcellulose) (HPC) 89 % of control

CC(=O)OCc1ccc2ccccc2c1
inactive: dose: 100.0 mg/kg/injection, schedule: Q01DX009 (ip), vehicle: saline sonified 100 % of control | dose: 200.0 mg/kg/injection, schedule: Q01DX009 (ip), vehicle: saline sonified 100 % of control | dose: 400.0 mg/kg/injection, schedule: Q01DX009 (ip), vehicle: saline sonified 100 % of control

CCCCCCCCSc1nc2ccc(N=Cc3ccccc3O)cc2s1
inactive: dose: 12.5 mg/kg/injection, schedule: Q01DX009 (ip), vehicle: Klucel (hydroxypropylcellulose) (HPC) 109 % of control | [4] 94 % of control | [5] 90 % of control and 92 % of control | dose: 200.0 mg/kg/injection, schedule: Q01DX009 (ip), vehicle: Klucel (hydroxypropylcellulose) (HPC) 91 % of control

O=c1[nH]nc(-c2ccc(Cl)cc2)c2cc(Cl)c(Cl)cc12
inactive: dose: 3.12 mg/kg/injection, schedule: Q04DX002 (ip), vehicle: distilled water + Tween-80 90 % of control | dose: 6.25 mg/kg/injection, schedule: Q04DX002 (ip), vehicle: distilled water + Tween-80 96 % of control | dose: 12.5 mg/kg/injection, schedule: Q04DX002 (ip), vehicle: distilled water + Tween-80 93 % of control | dose: 25.0 mg/kg/injection, schedule: Q04DX002 (ip), vehicle: distilled water + Tween-80 93 % of control | dose: 50.0 mg/kg/injection, schedule: Q04DX002 (ip), vehicle: distilled water + Tween-80 90 % of control | dose: 100.0 mg/kg/injection, schedule: Q04DX002 (ip), vehicle: distilled water + Tween-80 95 % of control | dose: 200.0 mg/kg/injection, schedule: Q04DX002 (ip), vehicle: distilled water + Tween-80 102 % of control

O=C(O)c1c(-c2ccccc2)sc2ccccc2c1=O
inactive: [8] 99 % of control | [9] 99 % of control | [10] 99 % of control

CCOC(=O)c1c(SCC)c(C=C(C(C)=O)C(C)=O)c2ccccn12
inactive: [8] 99 % of control | [9] 95 % of control | [10] 89 % of control

CN(C)c1nc(=[N+](C)C)ss1
inactive: dose: 50.0 mg/kg/injection, schedule: Q01DX009 (ip), vehicle: saline with Tween-80 90 % of control | dose: 100.0 mg/kg/injection, schedule: Q01DX009 (ip), vehicle: saline with Tween-80 100 % of control | dose: 200.0 mg/kg/injection, schedule: Q01DX009 (ip), vehicle: saline with Tween-80 113 % of control

Cc1cn(C2CC(O)C(CS)O2)c(=O)[nH]c1=O (stereo not given)
inactive: dose: 50.0 mg/kg/injection, schedule: Q01DX005 (ip), vehicle: saline with Tween-80 104 % of control | dose: 100.0 mg/kg/injection, schedule: Q01DX005 (ip), vehicle: saline with Tween-80 105 % of control | dose: 200.0 mg/kg/injection, schedule: Q01DX005 (ip), vehicle: saline with Tween-80 103 % of control

Oc1ccc(C2N=CNc3nc[nH]c32)c(O)c1 (stereo not given)
inactive: dose: 50.0 mg/kg/injection, schedule: Q01DX009 (ip), vehicle: saline 105 % of control | dose: 100.0 mg/kg/injection, schedule: Q01DX009 (ip), vehicle: saline 102 % of control | dose: 200.0 mg/kg/injection, schedule: Q01DX009 (ip), vehicle: saline 100 % of control

CCc1cccc(CC)c1NC(=O)c1ccc(C)cc1
inactive: [6] 91 % of control | [7] 86 % of control

C1=CC2C(c3cccc4ccccc34)O[C@H]2O1 (stereo not given in full)
inactive: dose: 7.5 mg/kg/injection, schedule: Q01DX005 (ip), vehicle: Klucel (hydroxypropylcellulose) (HPC) 97 % of control | dose: 15.0 mg/kg/injection, schedule: Q01DX005 (ip), vehicle: Klucel (hydroxypropylcellulose) (HPC) 97 % of control | dose: 30.0 mg/kg/injection, schedule: Q01DX005 (ip), vehicle: Klucel (hydroxypropylcellulose) (HPC) 97 % of control

CN(C)CCP(=O)(O)O
inactive: [8] 95 % of control | [9] 100 % of control | [10] 100 % of control
